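Grown in 96-well plates, cells were treated for 48 hours with each compound at five concentrations. Insufficient inhibition: endpoint recorded as highest concentration tested. GI50 = concentration required for 50% inhibition of growth. TGI denotes the concentration required for complete inhibition of growth.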
Experiments:
Assay in all cases: NCI anticancer screen, dose series, 48 h
HS 578T breast = system: HS 578T breast
UO-31 renal = system: UO-31 renal
KM12 colon = system: KM12 colon
HCT-15 colon = system: HCT-15 colon
PC-3 prostate = system: PC-3 prostate
IGROV1 ovarian = system: IGROV1 ovarian
SK-MEL-2 melanoma = system: SK-MEL-2 melanoma
SNB-19 CNS = system: SNB-19 CNS
SW-620 colon = system: SW-620 colon
MDA-MB-435 = system: MDA-MB-435

Structure (SMILES)	GI50 (HS 578T breast) [nM]	TGI (HS 578T breast) [µM]	GI50 (UO-31 renal) [nM]	TGI (UO-31 renal) [µM]	GI50 (KM12 colon) [µM]	TGI (KM12 colon) [µM]	GI50 (HCT-15 colon) [nM]	TGI (HCT-15 colon) [µM]	GI50 (PC-3 prostate) [µM]	TGI (PC-3 prostate) [µM]	GI50 (IGROV1 ovarian) [µM]	TGI (IGROV1 ovarian) [µM]	GI50 (SK-MEL-2 melanoma) [µM]	TGI (SK-MEL-2 melanoma) [µM]	GI50 (SNB-19 CNS) [nM]	TGI (SNB-19 CNS) [µM]	GI50 (SW-620 colon) [nM]	TGI (SW-620 colon) [µM]	GI50 (MDA-MB-435) [nM]	TGI (MDA-MB-435) [µM]
CC(C)C[C@H](NC(=O)[C@@H](O)[C@H](N)Cc1ccc([N+](=O)[O-])cc1)C(=O)O	> 25000	> 25	> 25000	> 25	> 25	> 25	> 25000	> 25	> 25	> 25	> 25	> 25	> 25	> 25	> 25000	> 25	> 25000	> 25	> 25000	> 25
S=C(Nc1cc(Cl)c(Cl)cc1Cl)SCc1ccccc1	–	> 100	–	> 100	–	36.6	–	32.6	–	> 100	–	> 100	–	> 100	–	96.9	–	> 100	–	38.6
O=C(OCCBr)c1ccc(Cl)c([N+](=O)[O-])c1	3130	> 26.4	2720	7.85	5	10.9	16300	32.4	5.23	12.8	16.5	37.6	16.3	35.1	1870	3.74	14600	30.2	15500	30.9
COc1cc(C2C3=C(COC3=O)Nc3cc4c(cc32)CCC4)cc2c1OCO2 (stereo not given)	42.5	21.3	1050	26.5	0.0305	0.12	72.8	> 62.1	0.049	18.2	0.0617	17.1	0.0989	3.47	72.4	23.3	41.3	13.2	23.7	0.0604
CCC(/C=C/c1ccccc1)=N\Nc1ccc(Cl)c(Cl)c1	–	> 100	–	57.9	–	> 100	–	> 100	–	> 100	–	37.5	–	40.9	–	> 100	–	> 100	–	> 100
CC(C)c1ccc(Nc2nccc(-c3cnn4ncccc34)n2)cc1	623	5.16	804	> 9.35	0.201	1.83	614	> 25	0.615	> 12.3	0.502	> 19.5	0.411	1.13	842	> 25	516	9.07	567	1.66
CCCc1cc(=O)n2c(C(=O)Nc3ccccc3OC)c(C(=O)Nc3ccc(F)cc3)sc2n1	6270	25.6	23400	81.8	49.8	> 160	72000	> 160	3.61	12.9	21.5	46.2	7.53	29.6	23100	68.5	31000	> 160	36500	> 160
COc1cc(C(=O)/C=C/c2cccnc2Nc2ccccc2)cc(OC)c1OC	2150	7.93	1190	2.57	0.929	2.54	744	2.4	1.1	3.18	2.37	5.3	1.66	3.4	1480	2.86	422	1.66	637	2.08
Nc1c(C(=O)Nc2ccccc2)sc2nc3c(cc12)CN(Cc1ccccc1)CC3	2070	7.55	6140	> 100	19.1	> 100	24700	> 100	27.1	> 100	37.8	> 100	20.3	> 100	18300	> 100	20800	> 100	3430	71.6
CN(C)CC1CCCCCC(CN(C)C)C1=O (stereo not given)	21000	> 64.3	1770	4.5	15.9	37.1	1240	4.26	8.71	24.2	15.1	36.3	3.82	13.4	41700	> 100	1130	2.72	2930	13.2
